# From patent US10175256B2, “Compositions and methods utilizing lysophosphatidylcholine scaffolds” (National University Of Singapore, priority 2013, dated 2019)
# Values joined by “and” are separate entries in the source; they are usually repeats but may differ in a detail not shown here. Identical values can stand only once.
# Tested on: mouse Mfsd2a
# Assay: Cell-based free fatty acid transport/uptake in Mfsd2a expressing HEK293 cells (mass spectrometry, TLC; Table 1)
# Settings: mock HEK293 cells, 100 uM fatty acid/BSA overnight
# In short: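 HEK293 cells expressing mouse Mfsd2a, or mock controls, were incubated overnight with 100 μM BSA-complexed fatty acids. Lipids were extracted in hexane:isopropanol (3:2) and phospholipid species quantified by HPLC-MS/MS against spiked internal standards. For TLC, cells received 100 μM [^14C]-oleate overnight, and phospholipids and neutral lipids were resolved.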
structure (smiles),measurement,value
CCCCCCCCCCCCCCCC(=O)O [Palmitic acid],% DHA in PC + lysoPC,0.04025% and 0.03837% and 0.03939%
same,% DHA in PE + lysoPE,10.87% and 12.13% and 11.44%
same,% DHA in PI and lysoPI,0.01445% and 0.01615% and 0.01441%
same,% DHA in PS,0.1091% and 0.1184% and 0.1391%
same,LPI16:0 in total phospholipid,0.004053 mol percent and 0.002611 mol percent and 0.002621 mol percent
same,LPI18:0 in total phospholipid,0.0326 mol percent and 0.02611 mol percent and 0.03227 mol percent
same,LPI20:4 in total phospholipid,0.002114 mol percent and 0.002121 mol percent and 0.002948 mol percent
same,LPI22:6 in total phospholipid,0.009339 mol percent and 0.008648 mol percent and 0.007698 mol percent
same,Lyso PE16:0p in total phospholipid,2.649 mol percent and 2.594 mol percent and 2.175 mol percent
same,Lyso PE18:0p in total phospholipid,0.4161 mol percent and 0.4127 mol percent and 0.4189 mol percent
same,Lyso PE18:1p in total phospholipid,0.2081 mol percent and 0.1327 mol percent and 0.1216 mol percent
same,Lyso PE20:0p in total phospholipid,0.1803 mol percent and 0.2801 mol percent and 0.1892 mol percent
same,LysoPC16:0e in total phospholipid,0.003391 mol percent and 0.004221 mol percent and 0.003565 mol percent
same,LysoPC16:0 in total phospholipid,0.02383 mol percent and 0.02127 mol percent and 0.02008 mol percent
same,LysoPC16:1 in total phospholipid,0.006406 mol percent and 0.00591 mol percent and 0.006781 mol percent
same,LysoPC18:0e in total phospholipid,0.002449 mol percent and 0.002111 mol percent and 0.001826 mol percent
same,LysoPC18:0 in total phospholipid,0.0065 mol percent and 0.007261 mol percent and 0.008694 mol percent
same,LysoPC18:1 in total phospholipid,0.01564 mol percent and 0.01503 mol percent and 0.01617 mol percent
same,LysoPC18:2 in total phospholipid,0.00179 mol percent and 0.001266 mol percent and 0.001826 mol percent
same,LysoPC20:4 in total phospholipid,0.000565 mol percent and 0.000507 mol percent and 0.000435 mol percent
same,LysoPC22:5 in total phospholipid,0.000565 mol percent and 0.000507 mol percent and 0.000609 mol percent
same,LysoPE16:1 in total phospholipid,0.1387 mol percent and 0.1179 mol percent and 0.1351 mol percent
same,LysoPE18:0 in total phospholipid,0.1248 mol percent and 0.1327 mol percent and 0.06756 mol percent
same,LysoPE18:1 in total phospholipid,0.06936 mol percent and 0.1032 mol percent and 0.1081 mol percent
same,PC32:0e in total phospholipid,1.801 mol percent and 1.766 mol percent and 1.854 mol percent
same,PC32:0 in total phospholipid,2.545 mol percent and 2.525 mol percent and 2.567 mol percent
same,PC32:1e in total phospholipid,2.44 mol percent and 2.388 mol percent and 2.446 mol percent
same,PC32:1 in total phospholipid,9.659 mol percent and 9.461 mol percent and 9.558 mol percent
same,PC32:2 in total phospholipid,1.526 mol percent and 1.443 mol percent and 1.528 mol percent
same,PC34:1e in total phospholipid,4.963 mol percent and 4.847 mol percent and 4.905 mol percent
same,PC34:1 in total phospholipid,19.9344 mol percent and 19.96 mol percent and 20.13 mol percent
same,PC34:2e in total phospholipid,1.578 mol percent and 1.538 mol percent and 1.559 mol percent
same,PC34:2 in total phospholipid,6.328 mol percent and 6.182 mol percent and 6.318 mol percent
same,PC34:3e in total phospholipid,0.2382 mol percent and 0.2269 mol percent and 0.2367 mol percent
same,PC34:3 in total phospholipid,0.6391 mol percent and 0.6013 mol percent and 0.6247 mol percent
same,PC36:1e in total phospholipid,1.472 mol percent and 1.429 mol percent and 1.48 mol percent
same,PC36:1 in total phospholipid,2.714 mol percent and 2.676 mol percent and 2.731 mol percent
same,PC36:2e in total phospholipid,1.667 mol percent and 1.629 mol percent and 1.643 mol percent
same,PC36:2 in total phospholipid,5.976 mol percent and 5.824 mol percent and 5.922 mol percent
same,PC36:3e in total phospholipid,0.8048 mol percent and 0.7841 mol percent and 0.7962 mol percent
same,PC36:3 in total phospholipid,1.196 mol percent and 1.137 mol percent and 1.173 mol percent
same,PC36:4e in total phospholipid,0.4288 mol percent and 0.4113 mol percent and 0.4345 mol percent
same,PC36:4 in total phospholipid,0.338 mol percent and 0.3342 mol percent and 0.3346 mol percent
same,PC36:5e in total phospholipid,0.345 mol percent and 0.3295 mol percent and 0.3467 mol percent
same,PC36:5 in total phospholipid,0.06048 mol percent and 0.05513 mol percent and 0.06303 mol percent
same,PC36:6 in total phospholipid,0.04691 mol percent and 0.05294 mol percent and 0.05486 mol percent
same,PC38:1e in total phospholipid,0.3684 mol percent and 0.3499 mol percent and 0.3643 mol percent
same,PC38:3e in total phospholipid,0.4177 mol percent and 0.3847 mol percent and 0.3977 mol percent
same,PC38:3 in total phospholipid,0.5512 mol percent and 0.5341 mol percent and 0.5477 mol percent
same,PC38:4e in total phospholipid,0.4224 mol percent and 0.3985 mol percent and 0.4045 mol percent
same,PC38:4 in total phospholipid,0.4716 mol percent and 0.4393 mol percent and 0.4567 mol percent
same,PC38:5e in total phospholipid,0.3578 mol percent and 0.3449 mol percent and 0.3552 mol percent
same,PC38:5 in total phospholipid,0.2477 mol percent and 0.2424 mol percent and 0.2561 mol percent
same,PC38:6 in total phospholipid,0.174 mol percent and 0.1785 mol percent and 0.1847 mol percent
same,PC38:7 in total phospholipid,0.1181 mol percent and 0.1149 mol percent and 0.1218 mol percent
same,PC40:1e in total phospholipid,0.1903 mol percent and 0.1874 mol percent and 0.1969 mol percent
same,PC40:2e in total phospholipid,0.2001 mol percent and 0.2004 mol percent and 0.2061 mol percent
same,PC40:3e in total phospholipid,0.1401 mol percent and 0.1387 mol percent and 0.1449 mol percent
same,PC40:4e in total phospholipid,0.1234 mol percent and 0.1193 mol percent and 0.1297 mol percent
same,PC40:5e in total phospholipid,0.1139 mol percent and 0.1153 mol percent and 0.1197 mol percent
same,PC40:5 in total phospholipid,0.09044 mol percent and 0.0835 mol percent and 0.08903 mol percent
same,PC40:6 in total phospholipid,0.1315 mol percent and 0.1248 mol percent and 0.1282 mol percent
same,PC40:7 in total phospholipid,0.1778 mol percent and 0.1711 mol percent and 0.1768 mol percent
same,PE32:1 in total phospholipid,0.3976 mol percent and 0.2948 mol percent and 0.3603 mol percent
same,PE32:2 in total phospholipid,0.111 mol percent and 0.1474 mol percent and 0.08107 mol percent
same,PE34:0 in total phospholipid,0.1665 mol percent and 0.1867 mol percent and 0.1531 mol percent
same,PE34:1 in total phospholipid,1.137 mol percent and 1.327 mol percent and 1.144 mol percent
same,PE34:2 in total phospholipid,0.7398 mol percent and 0.9433 mol percent and 0.7927 mol percent
same,PE34p:1 in total phospholipid,0.971 mol percent and 1.042 mol percent and 0.8107 mol percent
same,PE34p:2 in total phospholipid,0.2589 mol percent and 0.2653 mol percent and 0.2702 mol percent
same,PE36:1 in total phospholipid,1.322 mol percent and 1.425 mol percent and 1.18 mol percent
same,PE36:2 in total phospholipid,1.822 mol percent and 1.936 mol percent and 1.702 mol percent
same,PE36:3 in total phospholipid,0.4809 mol percent and 0.3636 mol percent and 0.4143 mol percent
same,PE36:4 in total phospholipid,0.2219 mol percent and 0.2555 mol percent and 0.1711 mol percent
same,PE36p:1 in total phospholipid,0.4994 mol percent and 0.3931 mol percent and 0.3603 mol percent
same,PE36p:2 in total phospholipid,0.4531 mol percent and 0.5896 mol percent and 0.6485 mol percent
same,PE36p:3 in total phospholipid,0.7305 mol percent and 0.7272 mol percent and 0.9548 mol percent
same,PE36p:4 in total phospholipid,0.9617 mol percent and 0.9433 mol percent and 0.9458 mol percent
same,PE38:1 in total phospholipid,0.3791 mol percent and 0.3046 mol percent and 0.3063 mol percent
same,PE38:2 in total phospholipid,0.2589 mol percent and 0.2555 mol percent and 0.3423 mol percent
same,PE38:3 in total phospholipid,0.6381 mol percent and 0.7959 mol percent and 0.5495 mol percent
same,PE38:4 in total phospholipid,0.8693 mol percent and 0.9237 mol percent and 0.8647 mol percent
same,PE38:5 in total phospholipid,0.3791 mol percent and 0.5405 mol percent and 0.4684 mol percent
same,PE38:6 in total phospholipid,0.1665 mol percent and 0.1376 mol percent and 0.1531 mol percent
same,PE38p:0 in total phospholipid,0.05548 mol percent and 0.08844 mol percent and 0.09008 mol percent
same,PE38p:1 in total phospholipid,0.2034 mol percent and 0.226 mol percent and 0.2432 mol percent
same,PE38p:2 in total phospholipid,0.2312 mol percent and 0.2948 mol percent and 0.3423 mol percent
same,PE38p:3 in total phospholipid,0.7768 mol percent and 0.8352 mol percent and 0.7656 mol percent
same,PE38p:4 in total phospholipid,1.036 mol percent and 0.8549 mol percent and 0.9998 mol percent
same,PE38p:5 in total phospholipid,0.6381 mol percent and 0.7272 mol percent and 0.7026 mol percent
same,PE38p:6 in total phospholipid,0.971 mol percent and 1.238 mol percent and 1.108 mol percent
same,PE40:3 in total phospholipid,0.1202 mol percent and 0.1179 mol percent and 0.1621 mol percent
same,PE40:5 in total phospholipid,0.1572 mol percent and 0.1376 mol percent and 0.2432 mol percent
same,PE40:6 in total phospholipid,0.3052 mol percent and 0.3832 mol percent and 0.2702 mol percent
same,PE40p:4 in total phospholipid,0.2959 mol percent and 0.2162 mol percent and 0.2973 mol percent
same,PE40p:5 in total phospholipid,0.2312 mol percent and 0.285 mol percent and 0.3153 mol percent
same,PE40p:6 in total phospholipid,0.5271 mol percent and 0.7272 mol percent and 0.6485 mol percent
same,PE42p:4 in total phospholipid,0.07398 mol percent and 0.05896 mol percent and 0.08107 mol percent
same,PE42p:6 in total phospholipid,0.1572 mol percent and 0.167 mol percent and 0.1441 mol percent
same,PE42p:7 in total phospholipid,0.1942 mol percent and 0.1277 mol percent and 0.1621 mol percent
same,PI 32:1 in total phospholipid,0.01674 mol percent and 0.0186 mol percent and 0.01785 mol percent
same,PI 32:2 in total phospholipid,0.001586 mol percent and 0.001469 mol percent and 0.001965 mol percent
same,PI 34:1 in total phospholipid,0.1071 mol percent and 0.1227 mol percent and 0.1299 mol percent
same,PI 34:2 in total phospholipid,0.06502 mol percent and 0.06038 mol percent and 0.07305 mol percent
same,PI 36:1 in total phospholipid,0.1544 mol percent and 0.1643 mol percent and 0.1769 mol percent
same,PI 36:2 in total phospholipid,0.3593 mol percent and 0.3719 mol percent and 0.3898 mol percent
same,PI 36:3 in total phospholipid,0.1695 mol percent and 0.1663 mol percent and 0.1785 mol percent
same,PI 36:4 in total phospholipid,0.04176 mol percent and 0.03965 mol percent and 0.0416 mol percent
same,PI 38:2 in total phospholipid,0.3441 mol percent and 0.3474 mol percent and 0.3631 mol percent
same,PI 38:3 in total phospholipid,0.9296 mol percent and 0.9911 mol percent and 1.026 mol percent
same,PI 38:4 in total phospholipid,0.3635 mol percent and 0.3967 mol percent and 0.3998 mol percent
same,PI 38:5 in total phospholipid,0.05392 mol percent and 0.0483 mol percent and 0.04815 mol percent
same,PI 38:6 in total phospholipid,0.0074 mol percent and 0.009628 mol percent and 0.007698 mol percent
same,PI 40:3 in total phospholipid,0.02555 mol percent and 0.02627 mol percent and 0.02801 mol percent
same,PI 40:4 in total phospholipid,0.01515 mol percent and 0.01599 mol percent and 0.01196 mol percent
same,PI 40:5 in total phospholipid,0.004934 mol percent and 0.004895 mol percent and 0.009172 mol percent
same,PI 40:6 in total phospholipid,0.007048 mol percent and 0.006527 mol percent and 0.006715 mol percent
same,PS(sum) in total phospholipid,3.034 mol percent and 2.842 mol percent and 3.239 mol percent
same,PS:34:1 in total phospholipid,0.4968 mol percent and 0.4486 mol percent and 0.5434 mol percent
same,PS:34:2 in total phospholipid,0.04738 mol percent and 0.04492 mol percent and 0.04867 mol percent
same,PS:36:1 in total phospholipid,1.269 mol percent and 1.209 mol percent and 1.375 mol percent
same,PS:36:2 in total phospholipid,0.4595 mol percent and 0.4148 mol percent and 0.4611 mol percent
same,PS:36:3 in total phospholipid,0.02585 mol percent and 0.02217 mol percent and 0.0262 mol percent
same,PS:36:4 in total phospholipid,0.00359 mol percent and 0.006418 mol percent and 0.006239 mol percent
same,PS:38:2 in total phospholipid,0.2312 mol percent and 0.2147 mol percent and 0.2602 mol percent
same,PS:38:3 in total phospholipid,0.1522 mol percent and 0.1447 mol percent and 0.1566 mol percent
same,PS:38:4 in total phospholipid,0.07467 mol percent and 0.08168 mol percent and 0.07674 mol percent
same,PS:40:4 in total phospholipid,0.08328 mol percent and 0.06359 mol percent and 0.073 mol percent
same,PS:40:5 in total phospholipid,0.06605 mol percent and 0.06534 mol percent and 0.05865 mol percent
same,PS:40:6 in total phospholipid,0.09836 mol percent and 0.1038 mol percent and 0.1248 mol percent
same,PS:40:7 in total phospholipid,0.01077 mol percent and 0.01459 mol percent and 0.01435 mol percent
same,Total PC + lysoPC in total phospholipid,71.06 mol percent and 69.79 mol percent and 71.05 mol percent
same,Total PE + lysoPE in total phospholipid,23.19 mol percent and 24.54 mol percent and 22.75 mol percent
same,Total PI + lysoPI in total phospholipid,2.715 mol percent and 2.832 mol percent and 2.956 mol percent
